Consider 15 compounds from patent US20240300980A1, “HETEROCYCLIC COMPOUNDS AS KRAS INHIBITOR, AND PREPARATION THEREFOR AND USE THEREOF IN TREATMENT” (SHANGHAI KECHOW PHARMA, INC., priority 2021, published 2024).

Broadly, the IC50 is the concentration that inhibits the measured activity by half.

The assay relates to AGS cells (KRAS^G12D). The assay can be described thus: Detection of cell proliferation in vitro by MTT/MTS method (cell activity experiment). Type of assay: cell-based. Particulars: Homo sapiens, AGS, 72 h, AGS cells; MTT/MTS; 3 days of drug treatment; read-out: AGS IC50. In short, it runs like this:
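After 3-day compound exposure (final DMSO 0.5%), viability of AGS (KRAS G12D) cells, plated 1000/well one day before dosing, was measured at 490 nm following 4 h MTT or MTS incubation. IC50 was fitted from dose–effect curves relative to DMSO-treated wells.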
For orientation: Tetrazolium dyes change colour on reduction, which living cells bring about.
For the compound `CCC1CCc2cc(O)cc(-c3ccc4c(N5C[C@H]6CC[C@@H](C5)N6)nc(OC[C@@]56CCCN5C[C@H](F)C6)nc4c3F)c21` (stereo partly drawn) [Example 283, 7-(4-((1R,5S)-3,8-diazabicyclo[3.2.1]octan-3-yl)-8-fluoro-2-(((2R,7aS)-2-fluorotetrahydro-1H-pyrrolizin-7a(5H)-yl)methoxy)quinazolin-7-yl)-1-ethyl-2,3-dihydro-1H-inden-5-ol], the IC50 is 14 nM.

Take `CC1CCc2cc(O)cc(-c3ccc4c(N5C[C@H]6CC[C@@H](C5)N6)nc(OC[C@@]56CCCN5C[C@H](F)C6)nc4c3F)c21` (stereo partly drawn) [Example 286, 7-(4-((1R,5S)-3,8-diazabicyclo[3.2.1]octan-3-yl)-8-fluoro-2-(((2R,7aS)-2-fluorotetrahydro-1H-pyrrolizin-7a(5H)-yl)methoxy)quinazolin-7-yl)-1-methyl-2,3-dihydro-1H-inden-5-ol]: the IC50 amounted to 29 nM. Under `CCC1CCCc2cc(O)cc(-c3ccc4c(N5C[C@H]6CC[C@@H](C5)N6)nc(OC[C@@]56CCCN5C[C@H](F)C6)nc4c3F)c21` (stereo partly drawn) [Example 289, 4-(4-((1R,5S)-3,8-diazabicyclo[3.2.1]octan-3-yl)-8-fluoro-2-(((2R,7aS)-2-fluorotetrahydro-1H-pyrrolizin-7a(5H)-yl)methoxy)quinazolin-7-yl)-5-ethyl-5,6,7,8-tetrahydronaphthalen-2-ol] stands 15 nM; under `CCC1COc2cc(O)cc(-c3ccc4c(N5C[C@H]6CC[C@@H](C5)N6)nc(OC[C@@]56CCCN5C[C@H](F)C6)nc4c3F)c21` (stereo partly drawn) [Example 292, 4-(4-((1R,5S)-3,8-diazabicyclo[3.2.1]octan-3-yl)-8-fluoro-2-(((2R,7aS)-2-fluorotetrahydro-1H-pyrrolizin-7a(5H)-yl)methoxy)quinazolin-7-yl)-3-ethyl-2,3-dihydrobenzofuran-6-ol], 40 nM.

`CCc1coc2cc(O)cc(-c3ccc4c(N5C[C@H]6CC[C@@H](C5)N6)nc(OC[C@@]56CCCN5C[C@H](F)C6)nc4c3F)c12` [Example 293, 4-(4-((1R,5S)-3,8-diazabicyclo[3.2.1]octan-3-yl)-8-fluoro-2-(((2R,7aS)-2-fluorotetrahydro-1H-pyrrolizin-7a(5H)-yl)methoxy)quinazolin-7-yl)-3-ethylbenzofuran-6-ol]: the IC50 was found to be 121 nM.

`Oc1cc(-c2ccc3c(N4C[C@H]5CC[C@@H](C4)N5)nc(OC[C@@]45CCCN4C[C@H](F)C5)nc3c2F)c2c(c1)C1CC1C2` (stereo partly drawn) [Example 294, 5-(4-((1R,5S)-3,8-diazabicyclo[3.2.1]octan-3-yl)-8-fluoro-2-(((2R,7aS)-2-fluorotetrahydro-1H-pyrrolizin-7a(5H)-yl)methoxy)quinazolin-7-yl)-1,1a,6,6a-tetrahydrocyclopropa[a]inden-3-ol]: the IC50 stood at 65 nM. For `Oc1cc2c(c(-c3ccc4c(N5C[C@H]6CC[C@@H](C5)N6)nc(OC[C@@]56CCCN5C[C@H](F)C6)nc4c3F)c1)C1CC1CC2` (stereo partly drawn) [Example 295, 7-(4-((1R,5S)-3,8-diazabicyclo[3.2.1]octan-3-yl)-8-fluoro-2-(((2R,7aS)-2-fluorotetrahydro-1H-pyrrolizin-7a(5H)-yl)methoxy)quinazolin-7-yl)-1a,2,3,7b-tetrahydro-1H-cyclopropa[a]naphthalen-5-ol], the IC50 was found to be 183 nM.

For `O=C1CCCc2cc(O)cc(-c3ccc4c(N5C[C@H]6CC[C@@H](C5)N6)nc(OC[C@@]56CCCN5C[C@H](F)C6)nc4c3F)c21` [Example 296, 8-(4-((1R,5S)-3,8-diazabicyclo[3.2.1]octan-3-yl)-8-fluoro-2-(((2R,7aS)-2-fluorotetrahydro-1H-pyrrolizin-7a(5H)-yl)methoxy)quinazolin-7-yl)-6-hydroxy-3,4-dihydronaphthalen-1(2H)-one], the IC50 is above 2500 nM. In the case of `O=C1CCc2cc(O)cc(-c3ccc4c(N5C[C@H]6CC[C@@H](C5)N6)nc(OC[C@@]56CCCN5C[C@H](F)C6)nc4c3F)c21` [Example 297, 7-(4-((1R,5S)-3,8-diazabicyclo[3.2.1]octan-3-yl)-8-fluoro-2-(((2R,7aS)-2-fluorotetrahydro-1H-pyrrolizin-7a(5H)-yl)methoxy)quinazolin-7-yl)-5-hydroxy-2,3-dihydro-1H-inden-1-one], the IC50 is above 2500 nM. Regarding `CC1(C)CCc2cc(O)cc(-c3ncc4c(N5C[C@H]6CC[C@@H](C5)N6)nc(OC[C@@]56CCCN5C[C@H](F)C6)nc4c3F)c21` [Example 299, 7-(4-((1R,5S)-3,8-diazabicyclo[3.2.1]octan-3-yl)-8-fluoro-2-(((2R,7aS)-2-fluorotetrahydro-1H-pyrrolizin-7a(5H)-yl)methoxy)pyrido[4,3-d]pyrimidin-7-yl)-1,1-dimethyl-2,3-dihydro-1H-inden-5-ol], the IC50 was 945 nM. For the compound `Oc1cc2c(c(-c3ncc4c(N5C[C@H]6CC[C@@H](C5)N6)nc(OC[C@@]56CCCN5C[C@H](F)C6)nc4c3F)c1)CC1(CC1)C2` [Example 300, 4′-(4-((1R,5S)-3,8-diazabicyclo[3.2.1]octan-3-yl)-8-fluoro-2-(((2R,7aS)-2-fluorotetrahydro-1H-pyrrolizin-7a(5H)-yl)methoxy)pyrido[4,3-d]pyrimidin-7-yl)-1′,3′-dihydrospiro[cyclopropane-1,2′-inden]-6′-ol], the IC50 came out at 177 nM. For `CC1CCCc2cc(O)cc(-c3c(Cl)cc4c(N5C[C@H]6CC[C@@H](C5)N6)nc(OC[C@@]56CCCN5C[C@H](F)C6)nc4c3F)c21` (stereo partly drawn) [Example 301, 4-(4-((1R,5S)-3,8-diazabicyclo[3.2.1]octan-3-yl)-6-chloro-8-fluoro-2-(((2R,7aS)-2-fluorotetrahydro-1H-pyrrolizin-7a(5H)-yl)methoxy)quinazolin-7-yl)-5-methyl-5,6,7,8-tetrahydronaphthalen-2-ol], the IC50 stood at 28 nM. As for `CCC1CCc2cc(O)cc(-c3c(Cl)cc4c(N5C[C@H]6CC[C@@H](C5)N6)nc(OC[C@@]56CCCN5C[C@H](F)C6)nc4c3F)c21` (stereo partly drawn) [Example 302, 7-(4-((1R,5S)-3,8-diazabicyclo[3.2.1]octan-3-yl)-6-chloro-8-fluoro-2-(((2R,7aS)-2-fluorotetrahydro-1H-pyrrolizin-7a(5H)-yl)methoxy)quinazolin-7-yl)-1-ethyl-2,3-dihydro-1H-inden-5-ol], the IC50 was 22 nM. On to `CCC1CCCc2cc(O)cc(-c3c(Cl)cc4c(N5C[C@H]6CC[C@@H](C5)N6)nc(OC[C@@]56CCCN5C[C@H](F)C6)nc4c3F)c21` (stereo partly drawn) [Example 303, 4-(4-((1R,5S)-3,8-diazabicyclo[3.2.1]octan-3-yl)-6-chloro-8-fluoro-2-(((2R,7aS)-2-fluorotetrahydro-1H-pyrrolizin-7a(5H)-yl)methoxy)quinazolin-7-yl)-5-ethyl-5,6,7,8-tetrahydronaphthalen-2-ol], for which the IC50 is 22 nM.

Consider `CC1CCc2cc(O)cc(-c3c(Cl)cc4c(N5C[C@H]6CC[C@@H](C5)N6)nc(OC[C@@]56CCCN5C[C@H](F)C6)nc4c3F)c21` (stereo partly drawn) [Example 304, 7-(4-((1R,5S)-3,8-diazabicyclo[3.2.1]octan-3-yl)-6-chloro-8-fluoro-2-(((2R,7aS)-2-fluorotetrahydro-1H-pyrrolizin-7a(5H)-yl)methoxy)quinazolin-7-yl)-1-methyl-2,3-dihydro-1H-inden-5-ol], for which the IC50 was 35 nM.
